In patent US4610987A, “Imidazoquinazolin-2-one compounds” (Daiichi Seiyaku Co., Ltd., priority 1983, dated 1986):
≈ marks a conversion by molar mass, not a printed value. Like-named read-outs stand apart in the source and are kept apart here.

Experiments:
[1] = tested on: platelet aggregation (rat platelet-rich-plasma); test: Test of Platelet Aggregation Inhibition (in vitro), rat PRP; format: cell-based, Wistar Imamichi rat; settings: for IC50: Platelet, in vitro, rat blood
Experimental: (§1) The test was performed as follows in accordance with the method of Ashida et al, Thrombosis and Haemostasis, Vol. 40, 542 (1979).
(§2) Blood was taken by puncture from the heart of a Wistar Imamichi rat under anesthesia with pentobarbital into a syringe containing 1/10 volume of a 3.13% aqueous solution of sodium citrate dihydrate, and the citrated blood was centrifuged to obtain a platelet-rich-plasma (PRP). In the same manner, citrated blood was collected from the vein of a healthy human who had not taken aspirin or any other anti-inflammatory agent since before 10 days, followed by centrifugation to obtain PRP. 5 μl of each test compound was added to 0.445 ml of each of these PRP samples, and the system was warmed at 30° C. for 1 minute. 50 μl of an aggregation inducer (ADP or collagen) was then added thereto, and platelet aggregation was determined according to the method of Born, Nature, Vol. 194, 927 (1962).

[2] = tested on: platelet aggregation (human platelet-rich-plasma); test: Test of Platelet Aggregation Inhibition (in vitro), human PRP; format: cell-based; settings: human blood, ADP-induced
Experimental: as §1, §2

[3] = Solubility Test (water-solubility)
circulatory system = test: Test of Influence on Circulatory System (blood pressure, heart beats); format: in vivo, SLC-Wistar rat; settings: rat, 50 mg/Kg p.o.
Experimental: 5 or 6 male normal SLC-Wistar rats per group (body weight: 205-255 g) orally received 50 mg/Kg of the test compound, and the blood pressure (tail cuff method) and the heart beats were measured with the passage of time in order to elucidate influences of the test compound on the circulatory system.

platelet aggregation [4] = test: Test of Platelet Aggregation Inhibition (ex vivo, p.o.); format: in vivo, Wistar Imamichi rat; settings: for inhibition at 10 mg/kg: Platelet, po, ex vivo, rat, 10 mg/Kg p.o., 1 hour, *P<0.05, **P<0.01, ***P<0.001; for aggregation inhibitory activity in ADP- or collagen-induced aggregation (in words): orally administered, Table 2
Experimental: One hour later, citrated blood was taken from the heart, and platelet aggregation was determined in the same manner as described in the in vitro test. The inhibitory activity was compared with that of control and expressed in terms of percent inhibition.

human heart PDE III = test: Inhibitory activity on phosphodiesterase, heart PDE III (cAMP); format: biochemical; settings: for IC50: cAMP substrate; for activity on heart PDE (in words): Table 6
Experimental: (§3) Phosphodiesterase fractions were separated from 105,000×g of supernatant fractions from human platelets and heart by DEAE-cellulose column chromatography using the method of Timothy et al. (Arch. Biochem. Biophy. 196, 465-474, 1979) with minor modifications. These fractions were designated PDE I, PDE II and PDE III, depending upon the order of their emergence from the DEAE-cellulose column.
(§4) Phosphodiesterase activity was measured by the method of Thompson and Appleman (Biochemistry 10, 311-316, 1971) with slight modifications. The reaction mixture consisted of 25 mM of Tris-HCl (pH 7.4), 5 mM of MgCl2, 1 μM of [^3 H]-cAMP or cGMP (approximate 20,000 cpm), various concentrations of a test compound and the enzyme preparation. After incubation for 10 minutes at 30° C., the reaction was terminated by boiling the reaction mixture for 45 seconds. 5'-[^3 H]-AMP or GMP formed by phosphodiesterase was converted to [^3 H]adenosine or [^3 H]quanosine by snake venom (Botherop Atrox) containing 5'-nucleotidase and the product isolated by a cation exchange resin was counted in a liquid scintillation counter.

human heart PDE I = test: Inhibitory activity on phosphodiesterase, heart PDE I (cGMP); format: biochemical; settings: cGMP substrate
Experimental: as §3, §4

human platelet PDE II = test: Inhibitory activity on phosphodiesterase, platelet PDE II (cGMP); format: biochemical; settings: cGMP substrate
Experimental: as §3, §4

human platelet PDE I = human platelet PDE I (Homo sapiens, UniProt O76074); test: Inhibitory activity on phosphodiesterase, platelet PDE I (cGMP); format: biochemical; settings: cGMP substrate
Experimental: as §3, §4

[5] = tested on: platelet aggregation induced by B16 melanoma cells; test: Inhibition on Platelet Aggregation Induced by Cancer Cells (in vitro), B16; format: cell-based, C57BL/6 mouse; design: key: +: Aggregation was observed.; ±: Aggregation was partially inhibited.; -: No aggregation was observed
Experimental: (§5) It is known nowadays that platelet aggregation plays an important role in metastasis of cancers. […] Tanaka et al. The effect of the compounds of this invention to inhibit the above-described cancer cell-induced platelet aggregation was tested as follows. Cell suspensions of B16 or 3LL were prepared according to the method of Tanaka et al, Invarsion and Metastasis, Vol. 2, 289 (1982). […] Platelet aggregation of the sample system was determined according to the method of Born, and the platelet aggregation inhibitory activity was expressed by the following scale: […]

[6] = tested on: platelet aggregation induced by Lewis lung cancer (3LL) cells; test: Inhibition on Platelet Aggregation Induced by Cancer Cells (in vitro), 3LL; format: cell-based, C57BL/6 mouse; design: key: +: Aggregation was observed.; ±: Aggregation was partially inhibited.; -: No aggregation was observed
Experimental: as §5

human platelet PDE III = human platelet PDE III (Homo sapiens, UniProt Q14432); test: biochemical; settings: for IC50: cAMP substrate
Experimental: as §3, §4

platelet aggregation [7] = test: Test of Platelet Aggregation Inhibition (ex vivo; i.v.); format: in vivo, Wistar Imamichi rat; settings: iv, 0.25 h, rat, i.v. 67 μg/Kg/min, 15 min
Experimental: As test animals, 5 to 6 Wistar Imamichi rats (body weight: about 260 g) that had been allowed food and water ad libitum were used per group. The test compound was dissolved in a physiological saline solution and continuously injected over a period of 10 or 15 minutes to the rats under anesthesia with pentobarbital through the femoral vein. Immediately after completion of the administration, citrated blood was collected from the heart, and platelet aggregation was determined in the same manner as in the test in vitro in Test Example 2.

[8] = ADP-induced, read-out: IC50, platelet aggregation inhibition in vitro, ADP
[9] = collagen-induced, read-out: IC50, platelet aggregation inhibition in vitro, Collagen
[10] = ADP, read-out: ex vivo % inhibition of platelet aggregation, ADP
[11] = collagen, read-out: ex vivo % inhibition of platelet aggregation, Collagen

Chain of human platelet PDE III (Q14432 whole entry): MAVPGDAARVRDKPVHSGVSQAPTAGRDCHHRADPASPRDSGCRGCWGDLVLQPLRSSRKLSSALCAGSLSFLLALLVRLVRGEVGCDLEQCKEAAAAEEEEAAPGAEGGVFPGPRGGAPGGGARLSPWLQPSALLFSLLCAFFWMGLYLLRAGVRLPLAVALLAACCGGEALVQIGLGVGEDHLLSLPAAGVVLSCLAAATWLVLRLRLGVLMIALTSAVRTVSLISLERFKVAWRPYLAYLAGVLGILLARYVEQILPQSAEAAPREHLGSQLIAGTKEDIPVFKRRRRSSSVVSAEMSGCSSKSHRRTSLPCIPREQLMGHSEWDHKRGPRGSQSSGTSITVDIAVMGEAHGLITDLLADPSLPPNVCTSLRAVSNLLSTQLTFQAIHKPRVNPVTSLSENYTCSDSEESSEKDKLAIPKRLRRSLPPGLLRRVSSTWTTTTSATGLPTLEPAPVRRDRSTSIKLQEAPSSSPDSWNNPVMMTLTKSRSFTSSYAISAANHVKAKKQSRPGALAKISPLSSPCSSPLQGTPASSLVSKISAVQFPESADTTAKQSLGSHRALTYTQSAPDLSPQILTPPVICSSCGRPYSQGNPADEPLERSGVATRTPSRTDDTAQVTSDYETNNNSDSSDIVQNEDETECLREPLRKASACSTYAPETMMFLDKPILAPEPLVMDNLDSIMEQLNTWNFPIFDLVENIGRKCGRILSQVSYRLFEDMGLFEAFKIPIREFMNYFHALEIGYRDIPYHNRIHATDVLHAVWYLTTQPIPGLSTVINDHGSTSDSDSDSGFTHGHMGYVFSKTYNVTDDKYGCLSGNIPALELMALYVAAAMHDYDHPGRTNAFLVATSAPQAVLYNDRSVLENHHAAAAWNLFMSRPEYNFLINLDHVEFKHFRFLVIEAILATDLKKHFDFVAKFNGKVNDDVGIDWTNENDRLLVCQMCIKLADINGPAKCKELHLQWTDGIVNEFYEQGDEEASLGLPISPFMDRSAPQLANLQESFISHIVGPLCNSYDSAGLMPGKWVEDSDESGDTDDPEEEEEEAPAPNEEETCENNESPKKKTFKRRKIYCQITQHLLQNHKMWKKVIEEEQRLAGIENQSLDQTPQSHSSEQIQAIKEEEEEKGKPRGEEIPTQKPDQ

SMILES | platelet aggregation inhibitory activity (in words) [1] | IC50 [1, 8] | IC50 [1, 9] | IC50 [2] | solubility ([3]; tap water, pH 2) | solubility ([3]; water, pH 4, water) | Increase in Heart Beat (circulatory system; 1 hr, **P<0.01) | Reduction in Blood Pressure (circulatory system; 1 hr, *P<0.05, **P<0.01) | Increase in Heart Beat (circulatory system; 2 hr, **P<0.01) | Reduction in Blood Pressure (circulatory system; 2 hr, *P<0.05, **P<0.01) | Increase in Heart Beat (circulatory system; 3 hr, **P<0.01) | Reduction in Blood Pressure (circulatory system; 3 hr, **P<0.01) | Increase in Heart Beat (circulatory system; 5 hr, **P<0.01) | Reduction in Blood Pressure (circulatory system; 5 hr, **P<0.01) | Increase in Heart Beat (circulatory system; 6 hr, *P<0.05, **P<0.01) | Reduction in Blood Pressure (circulatory system; 6 hr, *P<0.05, **P<0.01) | inhibition at 10 mg/kg (platelet aggregation [4]; [10]) | inhibition at 10 mg/kg (platelet aggregation [4]; [11]) | IC50 (human heart PDE III) | IC50 (human heart PDE I) | other results
Cl.Cl.Nc1ccc2c(c1)CN1CC(=O)NC1=N2 [BL-7-NH2, 7-amino-1,2,3,5-tetrahydroimidazo[2,1-b]quinazolin-2-one dihydrochloride, reference compound] | scarecely exhibited platelet aggregation inhibitory activity | 170 µM | 16 µM | 50 µM |  |  |  |  |  |  |  |  |  |  |  |  |  |  |  |  | 
Cc1cccc2c1CN1CC(=O)NC1=N2.Cl [BL-3459, 6-methyl-1,2,3,5-tetrahydroimidazo[2,1-b]quinazolin-2-one hydrochloride] |  | 5 µM | 0.76 µM | 1.7 µM | < 100 µg/mL | < 10 µg/mL | 18% | 23% | 20% | 28% | 17% | 26% | 18% | 34% | 19% | 35% | 31% | 54% |  |  | Reduction in Blood Pressure (circulatory system; 24 hr, *P<0.05): 12%; aggregation inhibitory activity in ADP- or collagen-induced aggregation (in words) (platelet aggregation [4]): widely varied depending on the individual animal and, therefore, cannot be regarded significant
O=C1CN2Cc3c(ccc(Cl)c3Cl)N=C2N1 [BL-4162, 6,7-dichloro-1,2,3,5-tetrahydro[2,1-b]quinazolin-2-one] |  | 0.8 µM | 0.02 µM | 1.2 µM | < 10 µg/mL | < 10 µg/mL | 28% | 11% | 37% | 16% | 31% | 17% | 31% | 14% | 31% | 13% | 8% | 53% | 0.096 µM | > 10 µM | Increase in Heart Beat (circulatory system; 4 hr, **P<0.01): 37%; Reduction in Blood Pressure (circulatory system; 4 hr, **P<0.01): 14%; aggregation inhibitory activity in ADP- or collagen-induced aggregation (in words) (platelet aggregation [4]): widely varied depending on the individual animal and, therefore, cannot be regarded significant; IC50 (human platelet PDE II): 3.3 µM; IC50 (human platelet PDE I): 3.9 µM
CN(C)c1cc2c(cc1Cl)NC1=NC(=O)CN1C2 [Example 15] | strong platelet aggregation inhibitory activity | 1.1 µM | 0.44 µM |  |  |  |  |  |  |  |  |  |  |  |  |  | 28% | 49% | 0.11 µM | > 100 µM | water-solubility (in words) [3]: water-soluble; activity on heart PDE (in words) (human heart PDE III): strong activity on heart PDE; Inhibition on platelet aggregation induced by B16 ([5]; sample concn. 0.1 μM): +; Inhibition on platelet aggregation induced by B16 ([5]; sample concn. 0.3 μM): -; Inhibition on platelet aggregation induced by B16 ([5]; sample concn. 1 μM): -; Inhibition on platelet aggregation induced by B16 ([5]; sample concn. 3 μM): -; IC50 (human platelet PDE II): 5.1 µM; IC50 (human platelet PDE I): 3.9 µM; Inhibition on platelet aggregation induced by 3LL ([6]; sample concn. 0.3 μM): ±; Inhibition on platelet aggregation induced by 3LL ([6]; sample concn. 1 μM): -; Inhibition on platelet aggregation induced by 3LL ([6]; sample concn. 3 μM): -; IC50 Ratio (PDE II) Heart/Platelet (human platelet PDE III): 1.7; IC50 (human platelet PDE III): 0.063 µM
CN(C)c1ccc2c(c1)CN1CC(=O)NC1=N2 [Example 21, 7-dimethylamino-1,2,3,5-tetrahydroimidazo[2,1-b]quinazolin-2-one] | strong platelet aggregation inhibitory activity | 5.4 µM | 1.4 µM | 7.2 µM | > 100000 µg/mL | 180 µg/mL (≈ 782 µM) | 19% | 1.0% | 22% | 5.0% | 20% | 5.0% | 23% | 5.0% | 15% | 1.0% | 29% | 48% | 1.4 µM | > 100 µM | water-solubility (in words) [3]: water-soluble; activity on heart PDE (in words) (human heart PDE III): strong activity on heart PDE; IC50 (human platelet PDE II): 57 µM; inhibition at 0.067 mg/kg (platelet aggregation [7]; ADP, *P<0.05, read-out: Percent Inhibition of platelet aggregation, ADP): 23%; inhibition at 0.067 mg/kg (platelet aggregation [7]; collagen, *P<0.05, read-out: Percent Inhibition of platelet aggregation, Collagen): 71%; IC50 (human platelet PDE I): 70 µM; IC50 Ratio (PDE II) Heart/Platelet (human platelet PDE III): 1.1; IC50 (human platelet PDE III): 1.3 µM
